Source: ChEMBL document CHEMBL1649223, “Efficacy of albaconazole against Candida albicans in a vaginitis model” (2009)
Values after ≈ are worked out from the molar mass of the structure shown.

What was measured:
Assay type in all cases: functional
[1] = system: Candida albicans; assay: Antifungal activity against Candida albicans isolate 03-2718 infected BALB/c mouse vaginitis model assessed as reduction in fungal load in vagina at 40 mg/kg, administered through oral gavage twice daily for 5 days measured on day 6 post inoculation
[2] = system: Candida albicans; assay: Antifungal activity against Candida albicans isolate 03-2718 infected BALB/c mouse vaginitis model assessed as reduction in fungal load in vagina at 40 mg/kg, administered through oral gavage once daily for 5 days measured on day 6 post inoculation
[3] = system: Candida albicans; assay: Antifungal activity against Candida albicans isolate 03-2718 infected BALB/c mouse vaginitis model assessed as reduction in fungal load in vagina at 20 mg/kg, administered through oral gavage twice daily for 5 days measured on day 6 post inoculation
[4] = system: Candida albicans; assay: Antifungal activity against Candida albicans isolate 03-2718 infected BALB/c mouse vaginitis model assessed as reduction in fungal load in vagina at 20 mg/kg, administered through oral gavage once daily for 5 days measured on day 6 post inoculation
[5] = system: Candida albicans; assay: Antifungal activity against Candida albicans isolate 03-2718 infected BALB/c mouse vaginitis model assessed as reduction in fungal load in vagina at 10 mg/kg, administered through oral gavage twice daily for 5 days measured on day 6 post inoculation
[6] = system: Candida albicans; assay: Antifungal activity against Candida albicans isolate 03-2718 infected BALB/c mouse vaginitis model assessed as reduction in fungal load in vagina at 10 mg/kg, administered through oral gavage once daily for 5 days measured on day 6 post inoculation
[7] = system: Candida albicans; assay: Antifungal activity against Candida albicans isolate 03-2718 infected BALB/c mouse vaginitis model assessed as reduction in fungal load in vagina at 5 mg/kg, administered through oral gavage twice daily for 5 days measured on day 6 post inoculation
[8] = system: Candida albicans; assay: Antifungal activity against Candida albicans isolate 03-2718 infected BALB/c mouse vaginitis model assessed as reduction in fungal load in vagina at 5 mg/kg, administered through oral gavage once daily for 5 days measured on day 6 post inoculation
[9] = system: Candida albicans; assay: Antifungal activity against Candida albicans isolate 03-2718 infected BALB/c mouse vaginitis model assessed as reduction in fungal load in vagina at 40 mg/kg, administered through oral gavage twice daily for 5 days measured on day 1 post inoculation
[10] = system: Candida albicans; assay: Antifungal activity against Candida albicans isolate 03-2718 infected BALB/c mouse vaginitis model assessed as reduction in fungal load in vagina at 40 mg/kg, administered through oral gavage once daily for 5 days measured on day 1 post inoculation
[11] = system: Candida albicans; assay: Antifungal activity against Candida albicans isolate 03-2718 infected BALB/c mouse vaginitis model assessed as reduction in fungal load in vagina at 20 mg/kg, administered through oral gavage twice daily for 5 days measured on day 1 post inoculation
[12] = system: Candida albicans; assay: Antifungal activity against Candida albicans isolate 03-2718 infected BALB/c mouse vaginitis model assessed as reduction in fungal load in vagina at 20 mg/kg, administered through oral gavage once daily for 5 days measured on day 1 post inoculation
[13] = system: Candida albicans; assay: Antifungal activity against Candida albicans isolate 03-2718 infected BALB/c mouse vaginitis model assessed as reduction in fungal load in vagina at 10 mg/kg, administered through oral gavage twice daily for 5 days measured on day 1 post inoculation
[14] = system: Candida albicans; assay: Antifungal activity against Candida albicans isolate 03-2718 infected BALB/c mouse vaginitis model assessed as reduction in fungal load in vagina at 10 mg/kg, administered through oral gavage once daily for 5 days measured on day 1 post inoculation
[15] = system: Candida albicans; assay: Antifungal activity against Candida albicans isolate 03-2718 infected BALB/c mouse vaginitis model assessed as reduction in fungal load in vagina at 5 mg/kg, administered through oral gavage twice daily for 5 days measured on day 1 post inoculation
[16] = system: Candida albicans; assay: Antifungal activity against Candida albicans isolate 03-2718 infected BALB/c mouse vaginitis model assessed as reduction in fungal load in vagina at 5 mg/kg, administered through oral gavage once daily for 5 days measured on day 1 post inoculation
[17] = system: Candida albicans; assay: Antifungal activity against Candida albicans isolate 03-2718 after 48 hrs; details: isolate 03-2718, 48 h

Row | SMILES | log10cfu [1] | log10cfu [2] | log10cfu [3] | log10cfu [4] | log10cfu [5] | log10cfu [6] | log10cfu [7] | log10cfu [8] | log10cfu [9] | log10cfu [10] | log10cfu [11] | log10cfu [12] | log10cfu [13] | log10cfu [14] | log10cfu [15] | log10cfu [16] | MIC [17] [µg/mL]
1 | C[C@@H](n1cnc2cc(Cl)ccc2c1=O)[C@](O)(Cn1cncn1)c1ccc(F)cc1F [ALBACONAZOLE] | 2.24 | 3.13 | 3.34 | 3.81 | 3.83 | 4.33 | 4.82 | 4.99 | 5.79 | 5.62 | 5.48 | 5.13 | 5.43 | 5.07 | 5.46 | 5.06 | 0.5 (≈ 1.16 µM)
2 | OC(Cn1cncn1)(Cn1cncn1)c1ccc(F)cc1F [FLUCONAZOLE] |  |  | 3.74 | 4.51 |  |  |  |  |  |  | 5.9 | 5.51 |  |  |  |  | 
